Data set [1] in a line: Appearance and solubility of surfactants and of 1:1 molar blends with cationic surfactant. The format is physicochemical. As to conditions: for Appearance, 1.0%: 1:1 molar blend of the anionic with Ammonyx Cetac 30, 1.0% actives. As for the experimental part:
The surfactant blends tested are prepared at a 1:1 molar ratio without any pH adjustment. Dilutions are made using deionized water to the desired actives level. Actives amounts are wt. % unless indicated otherwise. Appearances are reported at ambient temperature for samples prepared within the last 24 h.

Data set [2] in a line: Agricultural dispersant screening: sedimentation of milled pesticide powder. The format is physicochemical. The arrangement: key to Sedimentation results at 1 h: Trace of sediment=“Tr”. As to conditions: for Rating: overall, versus DF-200 and DF-500 controls. The procedure: The potential of a composition for use as an agricultural dispersant is evaluated by its performance with five typical pesticide active ingredients: atrazine, chlorothalonil, diuron, imidacloprid and tebuconazole. The performance of each dispersant sample is evaluated in comparison with two standard Stepsperse® dispersants: DF-200 and DF-500 (products of Stepan Company).
A screening sample is prepared as shown below for each active. Wetting agents, clays, and various additives are included or excluded from the screening process as needed. The weight percent of pesticide (“technical material”) in the formulation depends on the desired active level of the final product. The active level chosen is similar to other products on the market. If this is a new active ingredient, then the highest active level is used.
Samples are evaluated in waters of varying hardness, in this case 342 ppm and 1000 ppm. The initial evaluations are performed at ambient temperature. Other temperatures can be evaluated as desired. The 342 ppm water is made by dissolving anhydrous calcium chloride (0.304 g) and magnesium chloride hexahydrate (0.139 g) in deionized water and diluting to 1 L. The 1000 ppm water is made similarly using 0.89 g of calcium chloride and 0.40 g of magnesium chloride hexahydrate.
Technical material (60-92.5 wt. %), anionic wetting agent (0.5-1.0 wt. %), silica (0.5-1.0 wt. %), and clay (balance) are blended in a suitable container. The blend is milled to a particle size of at least a d(90) of <20μ using a hammer and air/jet mills as needed. Test dispersant (0.1 g) is added to test water (50 mL) in a beaker and stirred 1-2 min. Milled powder containing the technical material (1.0 g) is added to the dispersant solution and stirred until all powder is wet (2-5 min.). The mixture is transferred to a 100-mL cylinder using additional test water for rinsing the beaker and is then diluted to volume. The cylinder is stoppered and inverted ten times, then allowed to stand. Visual inspection is performed at t=0.5, 1.0, 2.0, and 24 hours, and the amount of sediment observed (in mL) is recorded. Trace of sediment=“Tr” (see Table 5).

The mark [3] stands for this setting: Chlorothalonil, test water 342 ppm.
The mark [4] stands for this setting: Chlorothalonil, test water 1000 ppm.
Where [5] appears, read: Imidacloprid, test water 342 ppm.
The mark [6] stands for this setting: Imidacloprid, test water 1000 ppm.
Setting [7] is: Tebuconazole, test water 342 ppm.
Where [8] appears, read: Tebuconazole, test water 1000 ppm.

With “1-Undecanol, 1EO Ether Sulfate, Sodium Salt [Sat. C11 alcohol 1EO Na sulfate]”, in data set [1], the Solubility entry is on record as “fair-poor”. For the same substance, the “Appearance, 0.1%” value in data set [1] (1:1 molar blend of the anionic with Ammonyx Cetac 30, 0.1% actives, ambient temperature) is listed as “hazy liquid”. Moreover, the “Appearance, 1.0%” value in data set [1] (ambient temperature) is “separated”. Besides, the “Sedimentation results at 1 h” value in data set [2] (Atrazine, test water 342 ppm) was “Tr”; in data set [2] (Atrazine, test water 1000 ppm) it was 0.5 mL; in data set [2] (setting [3]), 0.5 mL; in data set [2] (setting [4]) it was 0.5 mL; in data set [2] (Diuron, test water 342 ppm) it was 0.5 mL; in data set [2] (Diuron, test water 1000 ppm), 1 mL. In addition, the “Sedimentation results at 1 h” value in data set [2] (setting [5]) is 1 mL; in data set [2] (setting [6]), 2.5 mL; in data set [2] (setting [7]) it was “Tr”; in data set [2] (setting [8]), 5 mL. Further, the “Sedimentation results at 24 h” value was found to be 1 mL in data set [2] (Atrazine, test water 342 ppm); 1 mL in data set [2] (Atrazine, test water 1000 ppm); 1 mL in data set [2] (setting [3]); 2 mL in data set [2] (setting [4]); 1 mL in data set [2] (Diuron, test water 342 ppm); 2 mL in data set [2] (Diuron, test water 1000 ppm). Besides, the “Sedimentation results at 24 h” value in data set [2] (setting [5]) turned out to be 2 mL; in data set [2] (setting [6]), 2 mL; in data set [2] (setting [7]), 0.5 mL; in data set [2] (setting [8]), 3 mL. Further, the Rating result in data set [2] is “equal”.

For the substance “Undecylenic Alcohol, 1EO Ether Sulfate, Sodium Salt [Unsat. C11 alcohol 1EO Na sulfate]”, the Solubility result in data set [1] was “good”. Besides, the “Appearance, 1.0%” value in data set [1] (ambient temperature) is “separated”. In addition, the “Sedimentation results at 1 h” value in data set [2] (Atrazine, test water 342 ppm) is “Tr”; in data set [2] (Atrazine, test water 1000 ppm), 0.5 mL; in data set [2] (setting [3]) it was “Tr”; in data set [2] (setting [4]), 0.5 mL; in data set [2] (Diuron, test water 342 ppm), 0.5 mL; in data set [2] (Diuron, test water 1000 ppm) it was 1 mL. For the same substance, the “Sedimentation results at 1 h” value in data set [2] (setting [5]) is listed as 3 mL; in data set [2] (setting [6]) it was 3, 3 mL; in data set [2] (setting [7]) it was “Tr”. Moreover, the “Sedimentation results at 24 h” value was 1 mL in data set [2] (Atrazine, test water 342 ppm); 1 mL in data set [2] (Atrazine, test water 1000 ppm); 1 mL in data set [2] (setting [3]); 1 mL in data set [2] (setting [4]); 1 mL in data set [2] (Diuron, test water 342 ppm); 2 mL in data set [2] (Diuron, test water 1000 ppm). For the same substance, the “Sedimentation results at 24 h” value is 4 mL in data set [2] (setting [5]); 3, 3 mL in data set [2] (setting [6]); 2 mL in data set [2] (setting [7]). Besides, the “Sedimentation observation (flock)” value in data set [2] (setting [8]) is reported as “flocked”. Moreover, the Rating result in data set [2] is given as “equal”.

These data come from patent publication US10287530B2, “Surfactants based on monounsaturated fatty alcohol derivatives” (priority 2013, dated 2019).
